Values of other authors as cited in patent US6858744B2, “Dihydoxyhexanoic acid derivatives, their intermediates, and methods of making” (Pfizer Inc., priority 2002, dated 2005).

SMILES: O=C(O)C(F)(F)F [trifluoro-acetic acid]
- pKa: 0.3
